Columns and labels:
FRK = FRK (Homo sapiens, UniProt P42685); assay: SelectScreen kinase profiling; assay type: biochemical
Procedure: (§1) The kinase selectivity analysis of LTM-1 was performed utilizing the SelectScreen Kinase Profiling Service offered by Thermo Fisher Scientific. In a dose-response assay featuring a ten-point dilution series from 0.25 μM to 128 μM, the inhibitory effects of LTM-1 on substrate phosphorylation reactions catalyzed by a panel of kinases were assessed. Consequently, the half-maximal inhibitory concentrations (IC50 values) for each kinase were determined.

DDR1 = DDR1 (Homo sapiens, UniProt Q08345); assay: SelectScreen kinase profiling; assay type: biochemical
Procedure: as §1

NTRK2 = NTRK2 (Homo sapiens, UniProt Q16620); assay: SelectScreen kinase profiling; assay type: biochemical
Procedure: as §1

JAK2 = JAK2 (Homo sapiens, UniProt O60674); assay: SelectScreen kinase profiling; assay type: biochemical
Procedure: as §1

ERBB4 = ERBB4 (Homo sapiens, UniProt Q15303); assay: SelectScreen kinase profiling; assay type: biochemical
Procedure: as §1

JAK3 = JAK3 (Homo sapiens, UniProt P52333); assay: SelectScreen kinase profiling; assay type: biochemical
Procedure: as §1

BMX = BMX (Homo sapiens, UniProt P51813); assay: SelectScreen kinase profiling; assay type: biochemical
Procedure: as §1

CDK5 = CDK5 (Homo sapiens, UniProt Q00535); assay: SelectScreen kinase profiling; assay type: biochemical
Procedure: as §1

FGFR3 = FGFR3 (Homo sapiens, UniProt P22607); assay: SelectScreen kinase profiling; assay type: biochemical
Procedure: as §1

NTRK1 = NTRK1 (Homo sapiens, UniProt P04629); assay: SelectScreen kinase profiling; assay type: biochemical
Procedure: as §1

ABL2 = ABL2 (Homo sapiens, UniProt P42684); assay: SelectScreen kinase profiling; assay type: biochemical
Procedure: as §1

LSD2 = target: T1, LSD2 (Homo sapiens, UniProt Q8NB78); assay: Lance Ultra demethylase TR-FRET enzyme inhibition assay, LSD2; assay type: biochemical; conditions: full-length LSD2 172 nM, Bio-H3K4me2 substrate, 1 h, mean ± SD, n = 3
T1 construct: full-length LSD2; by word order LSD2 from ActiveMotif
T1 sequence (Q8NB78 1-822): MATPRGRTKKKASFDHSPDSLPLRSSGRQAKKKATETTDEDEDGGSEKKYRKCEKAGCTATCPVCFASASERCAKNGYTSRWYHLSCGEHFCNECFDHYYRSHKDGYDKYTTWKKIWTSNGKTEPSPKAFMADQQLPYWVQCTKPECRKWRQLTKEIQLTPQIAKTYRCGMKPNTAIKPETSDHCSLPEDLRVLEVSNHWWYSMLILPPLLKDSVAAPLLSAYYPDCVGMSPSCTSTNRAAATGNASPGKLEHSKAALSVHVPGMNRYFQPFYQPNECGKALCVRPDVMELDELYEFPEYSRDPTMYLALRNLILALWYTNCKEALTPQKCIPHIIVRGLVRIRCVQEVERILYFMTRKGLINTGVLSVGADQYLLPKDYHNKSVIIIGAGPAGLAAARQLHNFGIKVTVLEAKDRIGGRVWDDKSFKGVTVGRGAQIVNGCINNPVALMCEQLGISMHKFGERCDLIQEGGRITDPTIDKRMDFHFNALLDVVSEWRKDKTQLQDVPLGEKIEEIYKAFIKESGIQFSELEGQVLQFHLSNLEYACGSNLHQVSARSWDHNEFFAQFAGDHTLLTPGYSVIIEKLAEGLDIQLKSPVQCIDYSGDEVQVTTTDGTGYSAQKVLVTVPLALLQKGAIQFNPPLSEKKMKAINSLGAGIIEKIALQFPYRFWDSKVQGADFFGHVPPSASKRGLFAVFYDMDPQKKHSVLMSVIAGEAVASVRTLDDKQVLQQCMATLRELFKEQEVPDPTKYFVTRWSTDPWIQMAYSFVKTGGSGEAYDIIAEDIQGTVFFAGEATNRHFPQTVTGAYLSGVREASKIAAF
Source text: These were utilized in both in vitro and in vivo assays. Iscove’s Modified Dulbecco’s Medium (IMDM), Roswell Park Memorial Institute (RPMI)-1640 medium, fetal bovine serum (FBS) and penicillin/streptomycin were purchased from Gibco (Grand Island, New Nork, United States). Recombinant human LSD1 (172–852 aa) and full-length LSD2 were obtained from Sino Biological Inc. and ActiveMotif.
The inhibitory effects of the tested compounds on LSD1 and LSD2 enzymes were methodically assessed using the Lance Ultra LSD1 Histone H3-Lysine 4 Demethylase Assay Kit from PerkinElmer, adhering to previously published methodologies ([Li et al., 2022]). In brief, the reaction was initiated by adding 4 μL of enzyme solution, with concentrations specified at 2 nM for LSD1 or 172 nM for LSD2, 4 μL of substrate solution [2.5 μM Bio-H3K4me2 ([…])], and 2 μL of tested compound to a Tris buffer (50 mM Tris-HCl, 50 mM NaCl, 0.01% Tween 20, 1 mM DTT, 10 μM FAD, 10% glycerol, pH 9.0) at room temperature and incubated for 1 h. Following the incubation, 5 μL of a detection mixture, comprising an Eu-labeled H3K4me0 antibody and ULight Streptavidin, was added to the reaction. The fluorescence intensity was then measured employing TR-FRET mode with excitation and emission wavelengths set at 320 nm and 665 nm, respectively, utilizing the Envision (PerkinElmer) system. Each experiment was performed in triplicate.

MV-4-11 xenograft = MV-4-11 xenograft model, anti-tumor activity; assay type: in vivo, BALB/c nude mice; conditions: 10 mg/kg intraperitoneal daily, 15 days, versus vehicle group
Source text: Given the potent inhibitory effect of LTM-1 on MV-4-11 cell proliferation in vitro, a previously reported xenograft animal model was established to measure the anti-tumor growth and development effects of LTM-1 ([Zhou et al., 2022]). The animal experimental design of this study was reviewed and confirmed by the Ethics Committee of China Pharmaceutical University. The experimental procedures complied with the ARRIVE guidelines (https://arriveguidelines.org/). Female BALB/c nude mice aged 4–6 weeks were purchased from Changzhou Cave Animal Co., Ltd. (Changzhou, China). Mice were housed in a specific pathogen-free (SPF) environment, where the temperature was precisely regulated to 25°C ± 2°C, the relative humidity was kept at 50% ± 5%, and a strict 12-h light-dark cycle was maintained. A 200 μL suspension of MV-4-11 cells (1 × 10^6 cells) was injected subcutaneously into the mice. […] The mice were administered drugs via intraperitoneal injection daily, with a total treatment period of 15 days. Mouse weight and tumor volume were measured every 3 days. The tumor volume was calculated using the formula (c × c × d)/2 (where c represents the smallest diameter, and d represents the largest diameter). […] In addition, the liver and kidney index levels were measured using an automatic biochemical analyzer to evaluate the toxic effects of LTM-1 on mice.

ABL2, sequence (P42684 whole entry): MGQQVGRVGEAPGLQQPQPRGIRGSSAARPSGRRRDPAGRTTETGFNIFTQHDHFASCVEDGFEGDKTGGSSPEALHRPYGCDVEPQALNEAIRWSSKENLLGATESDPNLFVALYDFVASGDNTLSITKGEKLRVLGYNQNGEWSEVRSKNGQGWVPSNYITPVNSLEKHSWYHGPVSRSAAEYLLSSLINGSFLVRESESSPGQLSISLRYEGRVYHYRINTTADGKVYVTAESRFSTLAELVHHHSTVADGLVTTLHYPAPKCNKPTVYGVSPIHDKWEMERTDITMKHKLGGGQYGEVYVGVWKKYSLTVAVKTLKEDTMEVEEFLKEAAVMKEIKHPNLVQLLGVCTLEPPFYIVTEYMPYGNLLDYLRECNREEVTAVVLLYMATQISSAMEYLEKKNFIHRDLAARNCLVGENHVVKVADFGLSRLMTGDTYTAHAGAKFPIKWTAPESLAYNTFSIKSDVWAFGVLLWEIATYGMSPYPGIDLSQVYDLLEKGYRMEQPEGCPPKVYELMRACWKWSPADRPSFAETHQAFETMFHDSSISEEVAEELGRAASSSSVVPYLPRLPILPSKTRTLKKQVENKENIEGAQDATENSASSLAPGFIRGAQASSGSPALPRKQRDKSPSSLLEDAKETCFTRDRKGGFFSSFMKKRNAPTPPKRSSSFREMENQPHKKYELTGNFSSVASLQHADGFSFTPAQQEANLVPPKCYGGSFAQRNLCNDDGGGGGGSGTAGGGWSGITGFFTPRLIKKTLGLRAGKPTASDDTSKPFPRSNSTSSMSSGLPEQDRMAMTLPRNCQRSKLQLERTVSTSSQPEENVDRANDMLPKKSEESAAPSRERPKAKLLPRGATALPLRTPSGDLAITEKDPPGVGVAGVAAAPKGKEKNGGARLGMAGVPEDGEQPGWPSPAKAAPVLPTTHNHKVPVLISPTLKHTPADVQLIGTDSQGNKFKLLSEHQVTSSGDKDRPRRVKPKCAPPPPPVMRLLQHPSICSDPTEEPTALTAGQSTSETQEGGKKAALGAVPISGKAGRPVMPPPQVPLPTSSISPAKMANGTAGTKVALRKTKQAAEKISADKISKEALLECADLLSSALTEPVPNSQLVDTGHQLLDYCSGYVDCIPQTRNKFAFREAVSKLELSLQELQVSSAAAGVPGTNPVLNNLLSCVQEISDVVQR
FRK, sequence (P42685 whole entry): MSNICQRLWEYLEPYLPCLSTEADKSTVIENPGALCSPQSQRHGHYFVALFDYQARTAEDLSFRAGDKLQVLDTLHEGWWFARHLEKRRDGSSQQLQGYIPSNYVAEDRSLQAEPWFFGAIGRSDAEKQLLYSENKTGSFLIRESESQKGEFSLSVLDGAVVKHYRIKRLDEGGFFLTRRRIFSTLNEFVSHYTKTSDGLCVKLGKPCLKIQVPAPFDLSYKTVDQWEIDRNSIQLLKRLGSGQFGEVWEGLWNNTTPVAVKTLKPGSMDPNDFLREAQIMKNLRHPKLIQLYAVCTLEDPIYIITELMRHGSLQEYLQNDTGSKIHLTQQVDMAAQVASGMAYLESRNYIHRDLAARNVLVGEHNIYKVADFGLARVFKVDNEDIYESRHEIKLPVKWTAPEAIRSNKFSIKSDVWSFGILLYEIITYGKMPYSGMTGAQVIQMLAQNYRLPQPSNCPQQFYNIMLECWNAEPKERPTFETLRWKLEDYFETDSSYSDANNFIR
CDK5, sequence (Q00535 whole entry): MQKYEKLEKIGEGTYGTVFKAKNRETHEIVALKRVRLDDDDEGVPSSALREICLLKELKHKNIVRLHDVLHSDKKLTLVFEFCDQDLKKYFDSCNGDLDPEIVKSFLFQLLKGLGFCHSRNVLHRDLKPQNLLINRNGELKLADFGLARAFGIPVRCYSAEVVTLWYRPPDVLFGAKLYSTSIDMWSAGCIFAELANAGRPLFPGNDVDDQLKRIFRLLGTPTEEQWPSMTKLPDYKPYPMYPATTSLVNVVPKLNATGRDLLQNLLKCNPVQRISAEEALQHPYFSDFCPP
CDK5, sequence (Q15078 99-307 partner limits assumed): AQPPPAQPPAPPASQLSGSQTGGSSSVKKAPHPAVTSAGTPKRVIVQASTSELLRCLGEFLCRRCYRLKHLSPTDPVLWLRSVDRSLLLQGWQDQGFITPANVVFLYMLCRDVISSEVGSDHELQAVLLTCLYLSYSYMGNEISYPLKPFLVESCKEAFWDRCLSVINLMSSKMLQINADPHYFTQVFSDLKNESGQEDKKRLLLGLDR
NTRK2, sequence (Q16620 32-822): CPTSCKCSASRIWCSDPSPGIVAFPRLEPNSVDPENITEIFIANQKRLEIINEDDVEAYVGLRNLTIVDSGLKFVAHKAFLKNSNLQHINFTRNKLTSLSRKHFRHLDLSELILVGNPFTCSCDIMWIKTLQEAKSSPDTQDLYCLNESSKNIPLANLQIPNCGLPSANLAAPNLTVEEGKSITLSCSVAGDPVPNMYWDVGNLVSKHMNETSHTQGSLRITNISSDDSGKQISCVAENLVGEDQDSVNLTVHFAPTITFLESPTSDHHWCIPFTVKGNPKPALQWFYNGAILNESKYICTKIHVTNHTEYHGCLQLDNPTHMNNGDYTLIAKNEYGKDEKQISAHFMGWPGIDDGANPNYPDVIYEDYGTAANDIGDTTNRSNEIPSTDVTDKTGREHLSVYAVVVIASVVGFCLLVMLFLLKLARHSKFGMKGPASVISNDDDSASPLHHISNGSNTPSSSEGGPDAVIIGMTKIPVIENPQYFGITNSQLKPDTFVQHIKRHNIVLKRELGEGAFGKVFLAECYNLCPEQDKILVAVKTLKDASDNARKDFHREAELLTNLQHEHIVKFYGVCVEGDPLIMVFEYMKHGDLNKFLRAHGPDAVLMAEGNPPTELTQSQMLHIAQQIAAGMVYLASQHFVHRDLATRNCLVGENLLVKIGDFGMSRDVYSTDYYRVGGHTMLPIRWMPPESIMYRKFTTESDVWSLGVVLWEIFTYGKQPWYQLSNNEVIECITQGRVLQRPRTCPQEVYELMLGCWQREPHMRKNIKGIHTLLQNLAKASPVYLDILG
DDR1, sequence (Q08345 19-913): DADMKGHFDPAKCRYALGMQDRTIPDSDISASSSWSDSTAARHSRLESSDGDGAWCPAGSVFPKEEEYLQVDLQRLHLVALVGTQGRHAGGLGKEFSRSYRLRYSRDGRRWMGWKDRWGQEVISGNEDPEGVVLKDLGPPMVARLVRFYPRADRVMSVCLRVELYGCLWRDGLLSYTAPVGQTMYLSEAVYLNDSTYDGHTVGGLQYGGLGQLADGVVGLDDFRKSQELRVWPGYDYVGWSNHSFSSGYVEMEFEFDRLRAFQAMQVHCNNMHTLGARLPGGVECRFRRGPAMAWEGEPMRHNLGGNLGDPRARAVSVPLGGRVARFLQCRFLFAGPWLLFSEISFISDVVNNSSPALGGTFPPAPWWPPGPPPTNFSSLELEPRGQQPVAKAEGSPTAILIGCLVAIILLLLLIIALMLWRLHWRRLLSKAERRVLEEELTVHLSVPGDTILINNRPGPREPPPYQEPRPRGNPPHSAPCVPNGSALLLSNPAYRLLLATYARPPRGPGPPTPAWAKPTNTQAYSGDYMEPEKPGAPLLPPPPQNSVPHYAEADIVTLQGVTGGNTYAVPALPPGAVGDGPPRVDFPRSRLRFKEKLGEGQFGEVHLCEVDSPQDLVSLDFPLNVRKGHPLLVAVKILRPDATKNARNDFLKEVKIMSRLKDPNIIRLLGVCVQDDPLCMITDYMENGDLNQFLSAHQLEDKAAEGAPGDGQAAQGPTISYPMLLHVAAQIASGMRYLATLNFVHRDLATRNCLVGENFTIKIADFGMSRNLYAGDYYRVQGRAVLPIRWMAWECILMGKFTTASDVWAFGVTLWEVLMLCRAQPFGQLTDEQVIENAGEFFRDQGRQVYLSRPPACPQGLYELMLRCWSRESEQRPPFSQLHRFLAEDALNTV
NTRK1, sequence (P04629 33-796): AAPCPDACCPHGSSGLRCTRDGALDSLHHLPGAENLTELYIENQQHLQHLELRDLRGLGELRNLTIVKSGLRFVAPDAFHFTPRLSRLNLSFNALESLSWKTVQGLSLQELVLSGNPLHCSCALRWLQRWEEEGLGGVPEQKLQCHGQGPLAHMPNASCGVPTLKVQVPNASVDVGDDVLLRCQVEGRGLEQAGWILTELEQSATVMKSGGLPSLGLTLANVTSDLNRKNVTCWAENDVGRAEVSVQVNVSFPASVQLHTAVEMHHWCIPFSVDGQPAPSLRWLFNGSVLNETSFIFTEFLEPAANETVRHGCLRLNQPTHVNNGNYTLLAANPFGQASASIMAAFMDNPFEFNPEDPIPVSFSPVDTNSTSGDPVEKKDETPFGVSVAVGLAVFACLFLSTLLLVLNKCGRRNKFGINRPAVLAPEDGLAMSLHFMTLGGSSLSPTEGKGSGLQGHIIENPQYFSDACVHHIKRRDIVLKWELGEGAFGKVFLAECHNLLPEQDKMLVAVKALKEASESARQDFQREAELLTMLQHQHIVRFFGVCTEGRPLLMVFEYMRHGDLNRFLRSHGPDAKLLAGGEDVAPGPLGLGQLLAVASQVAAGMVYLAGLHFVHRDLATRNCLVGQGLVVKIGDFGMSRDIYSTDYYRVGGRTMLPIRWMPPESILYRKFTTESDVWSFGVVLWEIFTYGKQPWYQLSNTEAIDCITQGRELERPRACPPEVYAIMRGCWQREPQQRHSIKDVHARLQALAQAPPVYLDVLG

IC50 (FRK): > 10 µM | IC50 (DDR1): > 10 µM | IC50 (NTRK2): > 10 µM | IC50 (JAK2): > 10 µM | IC50 (ERBB4): > 10 µM | IC50 (JAK3): > 10 µM | IC50 (BMX): > 10 µM | IC50 (CDK5): > 10 µM | IC50 (FGFR3): > 10 µM | IC50 (NTRK1): > 10 µM | IC50 (ABL2): > 10 µM | IC50 (LSD2): > 5 µM
SMILES: O=S(=O)(c1ccc(C(O)CO)c(C(F)(F)F)c1)N1CCc2cc(C3CC3NCC3CCNCC3)ccc21 (stereo not shown) [LTM-1]
tumor growth (tumor volume) (MV-4-11 xenograft): significantly reduced

Source: paper PMC11903733 (Frontiers in Pharmacology, 2025)
